Results as given in PMC11117660, “Novel Angiotensin-Converting Enzyme-Inhibitory Peptides Obtained from Trichiurus lepturus: Preparation, Identification and Potential Antihypertensive Mechanism” (Biomolecules, 2024).
Read-outs that look alike come from different tables or passages of the source. Where no end group is shown, it is not given here.

Assays:
ACE = settings: cited from earlier work
Method: According to the literature, ACE-inhibitory peptides with an IC50 between about 0.32 and 1000 μM have the potential to lower blood pressure. […] We therefore hypothesized that the peptides from FAGDDAPR, QGPIGPR, and GPTGPAGPR may have antihypertensive effects. […] Subsequently, peptides from the ribbonfish hydrolysates were isolated and identified through a combination of filtration and gel filtration chromatography techniques. […] Similarly, Dong et al. used alkaline protease to hydrolyze tilapi ...

[1] = molecular target: T1, Angiotensin I-converting enzyme (ACE) (Oryctolagus cuniculus, UniProt P12822); assay: ACE-inhibitory activity (FAPGG substrate, absorbance at 340 nm); type: biochemical, rabbit; settings: synthetic peptides, Figure 7; experiments in triplicate
T1 construct: sourced from rabbit lungs; purchased Sigma-Aldrich (St. Louis, MO, USA); host or cells: rabbit lung tissue
T1 sequence (P12822 34-1310): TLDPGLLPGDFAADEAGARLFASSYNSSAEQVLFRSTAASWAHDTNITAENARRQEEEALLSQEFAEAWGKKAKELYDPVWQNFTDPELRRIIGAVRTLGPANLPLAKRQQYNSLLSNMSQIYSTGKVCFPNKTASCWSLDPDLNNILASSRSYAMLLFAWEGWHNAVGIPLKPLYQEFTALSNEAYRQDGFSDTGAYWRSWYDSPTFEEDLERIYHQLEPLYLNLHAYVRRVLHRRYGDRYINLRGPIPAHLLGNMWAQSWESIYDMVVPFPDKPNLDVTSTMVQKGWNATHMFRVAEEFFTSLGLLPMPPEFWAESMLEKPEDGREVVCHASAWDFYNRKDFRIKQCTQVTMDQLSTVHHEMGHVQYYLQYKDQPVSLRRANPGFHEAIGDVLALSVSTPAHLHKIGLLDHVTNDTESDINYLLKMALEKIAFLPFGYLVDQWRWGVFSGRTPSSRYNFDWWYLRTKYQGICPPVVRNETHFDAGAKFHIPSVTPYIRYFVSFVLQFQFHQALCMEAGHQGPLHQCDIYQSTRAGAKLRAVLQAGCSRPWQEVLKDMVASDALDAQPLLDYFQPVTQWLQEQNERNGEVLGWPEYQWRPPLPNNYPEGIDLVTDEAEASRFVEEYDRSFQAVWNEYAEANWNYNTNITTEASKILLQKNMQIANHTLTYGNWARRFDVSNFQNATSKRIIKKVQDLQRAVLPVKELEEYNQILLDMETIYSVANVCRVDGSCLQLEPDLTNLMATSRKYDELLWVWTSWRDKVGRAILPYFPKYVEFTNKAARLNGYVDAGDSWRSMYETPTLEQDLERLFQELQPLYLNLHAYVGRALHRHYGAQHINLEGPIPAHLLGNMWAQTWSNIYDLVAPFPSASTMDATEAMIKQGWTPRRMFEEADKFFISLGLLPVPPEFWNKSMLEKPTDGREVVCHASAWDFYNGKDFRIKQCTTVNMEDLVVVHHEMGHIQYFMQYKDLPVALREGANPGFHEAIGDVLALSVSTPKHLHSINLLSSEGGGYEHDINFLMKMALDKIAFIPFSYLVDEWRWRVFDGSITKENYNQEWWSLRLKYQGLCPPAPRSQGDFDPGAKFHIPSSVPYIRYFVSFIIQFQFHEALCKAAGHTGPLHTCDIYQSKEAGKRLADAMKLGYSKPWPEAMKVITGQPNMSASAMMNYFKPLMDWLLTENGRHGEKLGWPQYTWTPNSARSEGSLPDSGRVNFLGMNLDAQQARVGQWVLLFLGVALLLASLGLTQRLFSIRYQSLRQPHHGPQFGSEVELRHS
Method: ACE-inhibitory activity was assessed by following the experimental procedure reported by Dou et al., with slight modifications. […] The negative control group was substituted with 100 μL of borate-buffered HEPES. The initial absorbance values of a1 and b1 for both the blank and sample groups were then measured at 340 nm (Thermo Fisher, Waltham, MA, USA). The sample group was then incubated at 37 °C for 30 min, and subsequently, the absorbance values were read again at 340 nm (a2, b2). […] The initial absorbance of the blank: a1-blank; b1-sample. a2: the absorbance values after incubation at 37 °C for 30 min. a2: blank; b2: samples.

[2] = molecular target: T1, Angiotensin I-converting enzyme (ACE); assay: In vitro simulated oral gastrointestinal digestion, ACE-inhibition read-out; type: biochemical, rabbit; settings: initially (before digestion), captopril as reference, Figure 5b
Method: ACE-inhibitory activity was assessed by following the experimental procedure reported by Dou et al., with slight modifications. A solution of borate-buffered HEPES (50 mM, pH 8.3) was dispensed into a 96-well plate, followed by the addition of samples (100 µL), ACE (50 µL, 0.1 U/mL, prepared from 50 mM borate buffer pH 8.3), and FAPGG(N-[3-(2-Furyl)acryloyl]-Phe-Gly-Gly) (50 µL, 1 mM) into each well. The negative control group was substituted with 100 µL of borate-buffered HEPES. The initial absorbance values of a1 and b1 for both the blank and sample groups were then measured at 340 nm (Thermo Fisher, Waltham, MA, USA). The sample group was then incubated at 37 °C for 30 min, and subsequently, the absorbance values were read again at 340 nm (a2, b2). (1) ACE inhibition rate=A−B/A×100% where A = a1 − a2, and B = b1 − b2. The initial absorbance of the blank: a1—blank; b1—sample. a2: the absorbance values after incubation at 37 °C for 30 min. a2: blank; b2: samples.
The in vitro digestion process was utilized. A quantity of 1 mg of the sample was dissolved in 1 mL of water and preheated in a water bath at 37 °C. Then, it was mixed with 1 mL of artificial saliva whose pH was adjusted to pH 6.8. The mixture was then agitated at 100 rpm for 1 min at 37 °C. Subsequently, the pH was adjusted to pH 2.0 using 1 M HCl and added in equal amounts to the simulated gastric digest. […]

[3] = literature examples of antihypertensive peptides, the reference is not clearly printed, read-out: IC50

For WAGP, the IC50 (ACE; [3]) is listed as 141 µM.

In the case of GPTGPAGPR [GPTGPAGPR], the IC50 [1] is reported as 168 µM.

With FAGDDAPR [FAGDDAPR] the “ACE-inhibitory activity lower than that of captopril” value [2] was 31.17% and the IC50 [1] was 263 µM.

Work on QGPIGPR [QGPIGPR] yielded an IC50 [1] of 81.1 µM.

For LEPWR, the IC50 (ACE; from Pacific saury neutral protease hydrolysate, read-out: ACE-inhibitory IC50) is listed as 99.5 µM.

In the case of VGINYW, the IC50 (ACE; [3]) is listed as 15.1 µM.

For FRVW, the IC50 (ACE; from Pinctada fucata, read-out: ACE-inhibitory IC50) is given as 18.3 µM.

In the case of “VGLFPSRSF [literature oligopeptide from tilapia (Oreochromis niloticus) skin hydrolysate]”, the IC50 (ACE; from tilapia skin alkaline protease hydrolysate, read-out: ACE-inhibitory IC50) is listed as 61.4 µM.
